We go through one substance from US11534457B2, “Use of dextran sulfate” (priority 2017, dated 2022).

Holding throughout (assay type): cell-based, Human
Test [1] concerns LPS system [PBMC and HUVEC+LPS (TLR4 ligand)]. The test is described as follows: BioMAP LPS system. From the text:
(§1) In this study LMW-DS was characterized by profiling in the BioMAP® Diversity PLUS panel. The BioMAP® panel consists of human primary cell-based systems designed to model different aspects of the human body in an in vitro format. The 12 systems in the BioMAP® Diversity PLUS panel (Table 32) allow test agent characterization in an unbiased way across a broad set of systems modeling various human disease states. The BioMA®P systems are constructed with one or more primary cell types from healthy human donors, with stimuli, such as cytokines or growth factors, added to capture relevant signaling networks that naturally occur in human tissue or pathological conditions. […]
(§2) Systems are derived from either single cell types or co-culture systems. […] Test agents prepared in either DMSO (small molecules; final concentration 0.1%) or PBS (biologics) are added at the indicated concentrations 1-hr before stimulation, and remain in culture for 24-hrs or as otherwise indicated (48-hrs, MyoF system; 72-hrs, BT system (soluble readouts); 168-hrs, BT system (secreted IgG)). […] Soluble factors from supernatants are quantified using either HTRF® detection, bead-based multiplex immunoassay or capture ELISA. Overt adverse effects of test agents on cell proliferation and viability (cytotoxicity) are detected by sulforhodamine B (SRB) staining, for adherent cells, and alamarBlue® reduction for cells in suspension. […]

The subject of test [2] is SAg system [PBMC and HUVEC+TCR ligands]. The test is described as follows: BioMAP SAg system.
Description: as §1, §2

Test [3] concerns MyoF system [differentiated lung myofibroblasts+(TNFα and TGFβ)]. As to the kind of experiment: BioMAP MyoF system.
Description: as §1, §2

For the substance “low molecular weight dextran sulfate [LMW-DS]”, the Decreased biomarker activity entry in test [1] is reported as “sTNFα”. The Increased biomarker activity entry in test [1], in test [2] and in test [3] (MyoF system) was “IL-8” each time. Also, in test [3], the biomarker activities modulated entry is listed as “merely IL-8”.
